Assay results as given in patent US4803066A, “Antibacterial and/or antifungal compositions for topical application” (Smith & Nephew Associated Companies p.l.c., priority 1986, dated 1989).
Converted amounts (≈) assume the structure as drawn.

Assays:
[1] = system: C. albicans V ATCC 10231; test: MIC of silver nitrate and clotrimazole individually and in combination (broth, microtitre plate); format: cell-based, Candida albicans; conditions: for MIC: Individual Agents: alone; for MIC: Individual Agents / MIC: Combination of Agents, Silver nitrate / MIC: Combination of Agents, Clotrimazole: C. albicans V ATCC 10231; for MIC: Combination of Agents, Silver nitrate: in combination with clotrimazole; for MIC: Combination of Agents, Clotrimazole: in combination with silver nitrate
Protocol: (§1) The test method employed was as follows suspensions of each agent or combination of agents were prepared at a range of dilutions in 60% propylene glycol in water. Isosensitest (trade mark) broth was inoculated with a test organism at a concentration of 10^5 organisms per ml and a sample was dispensed into wells of a microliter plate. The range of concentration of test substance or combination was added to the wells so that there was a further 10-fold dilution of the test substance or combination. The plates were incubated for either 24 or 48 hours at 37° C., and the MIC read as the lowest concentration giving no visible growth. For each organism tested all conditions of inoculum preparation, inoculation and incubation were standardised throughout.

[2] = system: Staph. aureus 1300; test: microbe, parasite or virus in culture; conditions: Staphylococcus aureus, 1300, read-out: MIC: Individual Agents
Protocol: as §1

[3] = system: C. albicans 159; test: microbe, parasite or virus in culture; conditions: Candida albicans, 159, read-out: MIC: Individual Agents
Protocol: as §1

[4] = system: Enterococcus 0022; test: microbe, parasite or virus in culture; conditions: Enterococcus, 0022, read-out: MIC: Individual Agents
Protocol: as §1

[5] = system: C. albicans V; test: MIC of agents individually and in combination (broth, microtitre plate); conditions: Candida albicans, read-out: MIC: Individual Agents
Protocol: as §1

[6] = system: C. albicans I; test: microbe, parasite or virus in culture; conditions: Candida albicans, read-out: MIC: Individual Agents
Protocol: as §1

[7] = system: Staph. aureus NCTC 10788; test: microbe, parasite or virus in culture; conditions: Staphylococcus aureus, NCTC10788, read-out: MIC: Individual Agents
Protocol: as §1

[8] = system: Staph. aureus; test: microbe, parasite or virus in culture; conditions: Staphylococcus aureus, read-out: MIC: Individual Agents
Protocol: as §1

[9] = system: E. Coli 0029; test: microbe, parasite or virus in culture; conditions: Escherichia coli, read-out: MIC: Individual Agents
Protocol: as §1

| Compound | MIC: Individual Agents ([1]; Table 3) [µg/mL] | MIC: Combination of Agents, Silver nitrate ([1]; Table 3) [µg/mL] | MIC: Individual Agents ([1]; Table 4) [µg/mL] | MIC: Combination of Agents, Silver nitrate ([1]; Table 4) [µg/mL] | MIC [2] [µg/mL] | MIC [3] [µg/mL] | MIC [4] [µg/mL] | MIC ([1]; Candida albicans, ATCC10231, read-out: MIC: Individual Agents) [µg/mL] | MIC: Combination of Agents, Clotrimazole ([1]; Table 3) [µg/mL] | MIC: Combination of Agents, Clotrimazole ([1]; Table 4) [µg/mL] | MIC [5] [µg/mL] | MIC [6] [µg/mL] | MIC [7] [µg/mL] | MIC [8] [µg/mL] | MIC [9] [µg/mL] |
| --- | --- | --- | --- | --- | --- | --- | --- | --- | --- | --- | --- | --- | --- | --- | --- |
| O=[N+]([O-])[O-].[Ag+] [Silver nitrate, silver nitrate] | 25 | 6.25 | 25 | 6.25 | – | – | – | – | – | – | – | – | – | – | – |
| Clc1ccccc1C(c1ccccc1)(c1ccccc1)n1ccnc1 [Clotrimazole, 1-{(2-chlorophenyl)diphenylmethyl}-1H-imidazole] | – | – | 12.5 | – | 100 (≈ 290 µM) | 25 (≈ 72.5 µM) | 100 (≈ 290 µM) | 12.5 | 3.125 | 3.125 | 0.5 | 5 (≈ 14.5 µM) | 100 (≈ 290 µM) | – | – |
| Clc1ccc(COC(Cn2ccnc2)c2ccc(Cl)cc2Cl)c(Cl)c1 (centres unmarked) [Miconazole nitrate, 1-{2-(2,4-dichlorophenyl)-2-[(2,4-dichlorophenyl)methoxy]ethyl}-1H-imidazole] | – | – | – | – | – | – | – | – | – | – | 62.5 | – | – | > 500 | > 500 |
